Paper PMC12040169 (PLOS Biology, 2025)

Test: in vitro
Conditions: human, hela cells, % viability

Structure (SMILES)	viability at 28.5 h, 10 µM [%]
COC(=O)c1cc(C#N)c(=O)n(CC(=O)Nc2ccc(OC)c(OC)c2)c1 [CBK297926]	102
CC(=O)Nc1ccc(-c2nc[nH]c2Br)cc1 [CBK019063]	88
CNC(=O)c1sc2ccccc2c1C1CN(Cc2cn(C)c3ccc(F)cc23)CCO1 (centres unmarked) [CBK285868]	87.4
CCN(CC)CCN(C(=O)N1CCCC1)c1c(C)cccc1C [CBK023237C]	98.7
O=C(COc1ccc(Cl)cc1Cl)NC(Cc1ccccc1)C(=O)O (centres unmarked) [CBK261061]	102
COc1ccc(CCC(=O)Nc2ccccc2N2CCCNCC2)cc1 [CBK024286T]	101
Cc1ccc(N2CC(c3nc(-c4ccncc4)no3)CC2=O)cc1Cl (centres unmarked) [CBK288582]	109
CSCCN1CCC(Oc2nccnc2OC2CCCCC2)CC1 [CBK082873T]	97
COc1ccccc1C(=O)NCCNC(=O)c1ccccn1 [CBK269174]	104
COc1cccc(-c2cc3c(=S)[nH]ccn3n2)c1 [CBK288437]	88
Cc1nc(-c2ccccc2)sc1C(=O)C1=C(O)C(=O)N(CCCN2CCOCC2)C1c1cccs1 (centres unmarked) [CBK266601]	91.4
O=C(NC(Cc1ccsc1)c1cccnc1)C1CCOCC1 (centres unmarked) [CBK285110]	92.9
O=C(OCCc1ccncc1)N1CCCC(F)(F)C1 [CBK200157]	92.2
O=C(NCc1ccccn1)c1ccc(NS(=O)(=O)c2cccc(Cl)c2)cc1 [CBK267249]	111
Cc1ccccc1Sc1ccc(C(F)(F)F)cn1 [CBK115237]	112
COc1ccc2[nH]cc(CCNC(=O)c3cncnc3)c2c1 [CBK122720]	87.1
O=C(NCc1ccc(Cl)cc1)c1c(O)c2cc(NS(=O)(=O)c3ccccc3)ccc2[nH]c1=O [CBK017589]	94.4
O=C(O)CCC(=O)CCC(=O)c1ccc(F)cc1 [CBK287191]	87.3
CCOc1ccc2[nH]c(C(=O)NC3CCCN(C)C3)c(C)c2c1 (centres unmarked) [CBK282530]	109
Cc1ccc(C(=O)O)c(NC(=O)c2ccccc2F)c1 [CBK126744]	98.9
O=C(Cc1ccccc1)N/N=C/c1cccc2cccnc12 [CBK262778]	85.7
Cc1cccc(C(=O)Nc2ccc(-c3nnc(-c4ccc(NC(=O)c5cccc(C)c5)cc4)o3)cc2)c1 [CBK261603]	106

Structure (SMILES)	viability at 28.5 h, 10 µM [%]
Oc1cccc(-c2nccnc2N2CCN(c3ccncc3)CC2)c1 [CBK037079]	113
CC1CCc2c(sc(NC(=O)c3ccccc3)c2CN2CCCC2)C1 (centres unmarked) [CBK265908]	98.7
Cc1nn(CC(=O)NCC(c2cccnc2)N2CCOCC2)c(C)c1Cl (centres unmarked) [CBK304659]	118
O=S1(=O)CCN(Cc2cn(-c3ccc(-c4ccccc4)cc3)nn2)CC1 [CBK113105]	95.4
O=C(O)C1C2CCC(O2)C1C(=O)Nc1ccc2c(c1)OCCO2 (centres unmarked) [CBK263677]	103
O=C(CSc1nnc(COc2ccccc2)n1-c1ccccc1)c1cccs1 [CBK265133]	99.3
COc1cc2c(cc1OC)CN(Cc1cc(=O)[nH]c(=O)[nH]1)CC2 [CBK126393]	103
Brc1cncc2c1ccn2CCN1CCOCC1 [CBK083479]	87.1
CN1CCN(C(=O)CNS(=O)(=O)c2cc(F)c(Br)cc2F)CC1 [CBK034481]	99.5
COc1cccc(CN2CCN(C(=O)C3(C)CC3(Cl)Cl)CC2)c1 (centres unmarked) [CBK268121]	96.7
O=C(c1cc[nH]n1)N1CCCCC1c1ncc(-c2cccc(F)c2)[nH]1 (centres unmarked) [CBK291217]	94.6
CCOc1ccc(S(=O)(=O)N2CCSC2c2ccc(OC)c([N+](=O)[O-])c2)cc1 (centres unmarked) [CBK263293]	101
O=C(Nc1cccc(F)c1)N(CCO)Cc1cccnc1 [CBK304860]	104
Cc1ccccc1-c1ccc(C(=O)NCCc2ccc(S(N)(=O)=O)cc2)c(NCc2cccnc2)n1 [CBK076116]	98.4
O=C1NC2(CCc3ccccc31)CCN(C(=O)CCn1cccn1)C2 (centres unmarked) [CBK283352]	91.2
CC1(CCc2ccccc2)NC(=O)N(CC(=O)c2ccc(-c3ccccc3)cc2)C1=O (centres unmarked) [CBK297114]	107
Cc1cccc(-c2ocnc2C(=O)NC(C)c2ccccn2)c1 (centres unmarked) [CBK282427]	87.4
Cc1cc(-c2nnc(SCCC(=O)Nc3ccccc3)o2)no1 [CBK268737]	104
O=C(O)COc1ccc(NC(=O)C2CCCO2)cc1 (centres unmarked) [CBK270063]	102
COc1ccc2[nH]cc(CCNC(=O)N3CCN(CCN4CCOCC4)CC3)c2c1 [CBK155818]	101
CCS(=O)(=O)N1CCC(C(=O)NC2CC(C)(C)Oc3ccccc32)CC1 (centres unmarked) [CBK304364]	90.1
CN(CCCc1nc(-c2ccc(Cl)cc2)no1)S(=O)(=O)c1ccc([N+](=O)[O-])cc1 [CBK267365]	96

Structure (SMILES)	viability at 28.5 h, 10 µM [%]
COCCNC(=O)c1ccc(-c2ccccc2C)nc1NC(C)=O [CBK106325]	109
O=C(CN1C(=O)c2ccccc2C1=O)Nc1cc(C(=O)O)cc(C(=O)O)c1 [CBK262024]	102
COCCNC(=O)c1nnn(-c2ccc(Br)cc2)c1C [CBK300524]	93.3
O=C(Nc1nnn[nH]1)C12CC3CC(CC(C3)C1)C2 [CBK262276]	82.4
O=C(CSc1ccccc1)Nc1cccc(NC(=O)c2cccs2)c1 [CBK266788]	96.7
CCOC(=O)c1ccccc1NC(=O)N[C@@H]1CC[C@@]2(c3ccc(OC)c(OC)c3)CCN(C)[C@H]2C1 [CBK047494T]	94.9
COCCC(=O)N1C[C@@H]2C[C@H](C1)c1ccc(NC(=O)Nc3cccc(F)c3)c(=O)n1C2 [CBK289075]	84.6
COc1cccc(-c2nnc(NC(=O)c3ccc4c(c3)OCCO4)o2)c1 [CBK287591]	108
COC(=O)CN1N=C(C(C)(C)C)Cn2c(cc3sccc32)C1=O [CBK284177]	83.3
NC(=O)c1c(NC(=O)c2ccc(S(=O)(=O)N3CCCC3)cc2)sc2c1CCCC2 [CBK262486]	106
COc1ccc(S(=O)(=O)N2CCN(CCN3C(=O)c4cccc5cccc(c45)C3=O)CC2)cc1[N+](=O)[O-] [CBK263301]	102
C[S+]([O-])c1nc2ccccc2s1 (centres unmarked) [CBK028233]	93.5
COC(C)(C(=O)Nc1ccc(Cl)nc1)c1cccc2ccccc12 (centres unmarked) [CBK091350]	102
CCOC(=O)c1cn(CC2CC2)c2cc(F)c(F)cc2c1=O [CBK304195]	98.1
Cc1cc(Cl)cc(Cl)c1S(=O)(=O)Nc1nc2c(s1)CN(C(=O)N1CCOCC1)CC2 [CBK000931]	92.6
COc1ccc(-n2c(=O)[nH]cc(C(=O)Nc3cc(C)ccc3OC)c2=O)cc1 [CBK287548]	107
CC(C)(C)OC(=O)N1CCC[C@]2(CCC(=O)N2)[C@H]1c1ccc(F)cc1 [CBK283462]	86.1
O=C(NCC1CCCO1)c1ccccc1Sc1ccc([N+](=O)[O-])cc1Cl (centres unmarked) [CBK266041]	88.8
O=C(O)C(Cc1cc2ccccc2[nH]1)N1C(=O)C2CC=C(Cl)CC2C1=O (centres unmarked) [CBK266216]	94.2
COc1ccc2c(c1)CCC(c1ccccc1)=C2c1ccc(OCC(O)CN)cc1 (centres unmarked) [CBK015723C]	70.5
O=C(c1ccco1)N1CCC[C@H]1[C@H](O)c1nc2ccccc2s1 [CBK284290]	99
O=C(Cc1csc(-c2ccc(Cl)cc2)n1)N1CCN(c2ccccn2)CC1 [CBK107310]	97

Structure (SMILES)	viability at 28.5 h, 10 µM [%]
Cc1cc(C)n(CCCNC(=O)N2CCC(c3nccs3)CC2)n1 [CBK304088]	91.9
COC(=O)c1c(C)c(C(C)=O)n(C)c1C [CBK012459]	117
NNC(=O)C(NC(=O)c1ccccc1)c1n[nH]c(=O)c2ccccc12 (centres unmarked) [CBK261144]	92.9
Cc1ccc(S(=O)(=O)NCC(=O)N2CCN(Cc3ccccc3)CC2)cc1 [CBK265991]	104
COc1ccc(C(=O)NNC(=O)c2cccc(Cl)c2)cc1OC [CBK261704]	91.4
Nc1nonc1-n1nnc(C(=O)O)c1-c1cccs1 [CBK266674]	99.4
COc1ccc(C2=CC(c3ccc(C(F)(F)F)cc3)n3nnnc3N2)cc1OC (centres unmarked) [CBK296131]	117
Cc1nc2c(C(=O)NCC3OCCO3)cnn2c(C)c1Cc1ccc(Br)cc1 [CBK167467]	99.8
O=C(O)c1cccc(NCC(=O)c2ccccc2)c1 [CBK287163]	88.8
Cc1cc2c(o1)c1cnn(CC(=O)N3CCCCCC3)c(=O)c1n2C [CBK284219]	81.2
Cc1nc2ccc(C(=O)N3CCCCC3)cn2c1N(C)C=O [CBK145480]	100
CC(=O)Nc1ccc(Nc2cc(-c3ccc(Cl)cc3)ncn2)cc1 [CBK090720]	93.6
COc1ccc(F)cc1S(=O)(=O)Nc1cccc(C)n1 [CBK268842]	84.9
CC(=O)NCCSc1cc(N2CCCC2)ncn1 [CBK105621]	106
COC(=O)CN1C(=O)N2CCCN=C2c2ccc(Cl)cc21 [CBK284402]	89.8
O=C(Nc1nnc(-c2ccccc2)o1)c1nc2ccccc2s1 [CBK287595]	91.2
O=C(CCn1cnc2ccccc2c1=O)Nc1ccccc1C(F)(F)F [CBK270056]	101
Nc1nc(SCC(=O)NCc2ccco2)n[nH]1 [CBK266572]	94
Cc1ncsc1CCOC(=O)N1C[C@@H](C)O[C@@H](C)C1 [CBK200418]	96.3
O=C(CS(=O)(=O)c1ccccc1)Nc1cccc2nsnc12 [CBK267949]	97.4
COc1ccc(CCNC(=O)c2cc3c([nH]c2=O)CCC3)cc1C [CBK281627]	83.2

Same assay, conditions: human, hela cells, % viability, bulk resorufin, single well

Structure (SMILES)	viability at 28.5 h, 10 µM [%]
CC(C)C(=O)N1CCC2(CC1)OCc1cc(Cl)ccc1O2 [CBK061121]	89.6
CC[C@H](N)Cn1nc(-c2cccs2)oc1=O [CBK282393]	82.6
